In one assay the test system is breast cancer stem cells. As to conditions: phase I trial; cited from earlier work.
Assay [1] has as its system human keratinocytes. Briefly: Respirometry assay (OCR, XF-96 Seahorse). Type of assay: cell-based. As to conditions: 20 μM, 24 h, vs vehicle control. The protocol:
Respirometry Assay. The Oxygen Consumption Rate (OCR) measurements were performed using a Seahorse Bioscience XF-96 instrument. A day prior to the experiment, the sensor cartridge was hydrated overnight using the calibration buffer supplied by the manufacturer. The transfected cells were seeded in the 96 well microplate supplied by the company. On the day of the experiment, the cells were washed with the calibrant buffer twice and incubated with glucose free DMEM for 2 h at 37° C. in a CO2 free incubator. The injection ports of the sensors were filled with 20 μL of treatment or vehicle in buffer. The sensor was then placed into the XF-96 instrument and calibrated. After calibration, the calibration fluid plate was replaced with the cell plate. The measurement cycle consisted of a 2 min mix, 1 min wait, and a 2 min measurement. Four basal rate measurements were followed with injections and each injection is followed by four measurement cycles. The consumption rates were calculated from the continuous average slope of the O2 decreases using a compartmentalization model. For any one treatment, the rates from 10 wells were used. Rates for the wells were normalized for protein content. All average rates were normalized to the vehicle control basal and t-tests between control and treatment were used to assess statistical significance.

Assay [2] has as its system human keratinocytes. Briefly: Measurement of mitochondrial membrane potential (JC-1 flow cytometry; TMRM/PMPI). Type of assay: cell-based. The protocol:
Measurement of Mitochondrial Membrane Potential. Mitochondrial membrane potential changes were assessed by two different techniques, a) using the lipophilic cationic dye JC-1 (MitoProbe JC-1 Assay Kit for Flow Cytometry, Life technologies) per manufacturer's instruction by flow cytometer. Mitochondrial membrane potential was also evaluated b) using TMRM/PMPI after 48 hours of control/[…] mimic transfection. The images were captured by confocal microscope and the quantification of fluorescent intensity was measured using FV1000 software (Olympus, Tokyo, Japan).

In the next assay the test system is BAX. Briefly: Western blot analysis of BAX in human keratinocytes. Type of assay: cell-based. The settings on record: 20 μM, 24 h. The protocol: Western Blot Analysis. Immunoblotting was performed using HaCaT cell and wound tissue lysates. After protein extraction, the protein concentration was determined by BCA protein assay as described earlier. The samples (10-20 μg of protein/lane) were separated on a 4-12% SDS polyacrylamide gel electrophoresis and probed with rabbit polyclonal anti-notch1 […] antibody (1:1000 dilution, Abcam, Cambridge, Mass.), rabbit polyclonal anti-BAX antibody (1:1000 dilution, Abcam, Cambridge, Mass.), HRP conjugated anti-GAPDH (1:10,000 dilution). Bands were visualized by horseradish peroxidase-conjugated anti-rabbit-IgG raised in donkey and horseradish peroxidase-conjugated anti-mouse-IgG raised in sheep (Amersham Biosciences, Piscataway, N.J.) at 1:2,000 dilution and the enhanced chemiluminescence assay (Amersham Biosciences, Piscataway, N.J.).

These results are taken from patent publication US20230092762A1, “THERAPEUTIC DELIVERY OF LOCKED NUCLEIC ACID CONJUGATED ANTISENSE MIR-1” (THE TRUSTEES OF INDIANA UNIVERSITY, priority 2020, published 2023).

Consider `O=C(O)CC[C@H]1CC[C@@](c2cc(F)ccc2F)(S(=O)(=O)c2ccc(Cl)cc2)CC1` [MK-0752], for which, in the assay with breast cancer stem cells, the “breast cancer stem cells” value is listed as “reduction of breast cancer stem cells”. In the assay with human keratinocytes [1], the ATP production result is “significant decrease”, the basal respiration entry is on record as “significant decrease” and the “rate of oxygen consumption” value is given as “decreased rate of oxygen consumption”. Further, the “JC-1 green fluorescence (compromised ΔΨ)” value in the assay with human keratinocytes [2] (JC-1, 20 μM, 24 h) is “significant increase in JC-1 green fluorescence”. In addition, the TMRM fluorescence result in the assay with human keratinocytes [2] (TMRM and PMPI staining, 20 μM, 24 h) was “significant decrease in TMRM fluorescence”. In addition, the “mitochondrial membrane potential (ΔΨ)” value in the assay on human keratinocytes [2] (studies using TMRM and PMPI) is reported as “lowered ΔΨ”. Besides, in the assay with BAX, the BAX dimerization entry is “caused BAX dimerization”.
